Test results from paper PMC7456963, “HPLC-Based Activity Profiling for Antiprotozoal Compounds in Croton gratissimus and Cuscuta hyalina” (Frontiers in Pharmacology, 2020).
Values joined by “and” are separate entries in the source; they are usually repeats but may differ in a detail not shown here. Equal values may be shown once. Read-outs that look alike come from different tables or passages of the source.

Columns and labels:
[1] = tested on: P. falciparum NF54 erythrocytic stages; assay: Activity against Plasmodium falciparum (3H-hypoxanthine incorporation); assay type: cell-based; settings: for IC50: read-out: IC50 P. falciparum; for Selectivity index (SI): IC50 in L6 cells divided by IC50 in P. falciparum: L6 cells vs P. falciparum NF54
Description: In vitro activity against the erythrocytic stages of P. falciparum was determined using a ^3H-hypoxanthine incorporation assay ([Desjardins et al., 1979]), using the drug sensitive NF54 strain ([Ponnudurai et al., 1981]). Compounds were dissolved in DMSO at 10 mg/ml and further diluted in medium before addition to parasite cultures incubated in RPMI 1640 medium without hypoxanthine, supplemented with HEPES (5.94 g/L), NaHCO3 (2.1 g/L), neomycin (100 U/ml), Albumax^R (5 g/L), and washed human red cells A^+ at 2.5% haematocrit (0.3% parasitemia). Serial drug dilutions of 11 three-fold dilution steps covering a range from 100 to 0.002 μg/ml were prepared. The 96-well plates were incubated in a humidified atmosphere at 37°C; 4% CO2, 3% O2, 93% N2. After 48 h, 50 μl of ^3H-hypoxanthine (=0.5 μCi) was added to each well of the plate. The plates were incubated for a further 24 h under the same conditions. The plates were then harvested with a Betaplate™ cell harvester (Wallac, Zurich, Switzerland), the red blood cells transferred onto a glass fibre filter, and lysed with distilled water. The dried filters were inserted into a plastic foil with 10 ml of scintillation fluid and counted in a Betaplate™ liquid scintillation counter (Wallac, Zurich, Switzerland). IC50 values were calculated from sigmoidal inhibition curves by linear regression using Microsoft Excel. Chloroquine (Sigma C6628) was used as control. Assays were performed in two independent replicates at least.

[2] = tested on: L. donovani strain MHOM/ET/67/L82 axenic amastigotes; assay: Activity against Leishmania donovani axenic amastigotes (resazurin); assay type: cell-based; settings: for Selectivity index (SI): IC50 in L6 cells divided by IC50 in L. donovani axenic amastigotes: L6 cells vs axenic L. donovani; for IC50: MHOM/ET/67/L82, pH 5.4, 70 h + 2 h resazurin, mean ± absolute deviation, at least two replicates, read-out: IC50 L. donovani Axenic
Description: Amastigotes of L. donovani strain MHOM/ET/67/L82 were grown under an atmosphere of 5% CO2 in air in axenic culture at 37°C in SM medium ([Cunningham, 1977]) at pH 5.4 supplemented with 10% heat-inactivated fetal bovine serum. 50 µL of culture medium was added in the wells of a 96-well plate and serial drug dilutions of eleven three-fold dilution steps covering a final range from 100 to 0.002 μg/ml were prepared. 50 µL culture medium with 2 × 10^5 amastigotes from axenic culture were added to each well. After 70 h of incubation the plates were inspected under an inverted microscope to assure growth of the controls and sterile conditions. 10 μl of resazurin (12.5 mg resazurin dissolved in 100 ml distilled water) were added to each well and the plates incubated for another 2 h. Then the plates were read with a Spectramax Gemini XS microplate fluorometer (Molecular Devices Cooperation, Sunnyvale, CA, USA) using an excitation wavelength of 536 nm and an emission wavelength of 588 nm. Data were analyzed using the software Softmax Pro (Molecular Devices Cooperation, Sunnyvale, CA, USA). Decrease of fluorescence (= inhibition) was expressed as percentage of the fluorescence of untreated control cultures and plotted against the drug concentrations. From the sigmoidal inhibition curves the IC50 values were calculated. Miltefosine was used as positive control drug. Assays were performed in two independent replicates at least.

[3] = tested on: L. donovani amastigotes in mouse peritoneal macrophages; assay: Activity against Leishmania donovani intramacrophage amastigotes (high-content imaging); assay type: cell-based; settings: amastigotes in mouse peritoneal macrophages, 96 h, read-out: IC50 L. donovani Intramacrophage
Description: (§1) Macrophages were isolated from the mouse (CDI) peritoneal cavity ([Zhang et al., 2008]) using 2% starch solution as eliciting agent injected 2 day prior to cell harvest. Animal work was carried out according to the rules and regulations for the protection of animal rights (“Tierschutzverordnung”) of the Swiss “Bundesamt für Veterinärwesen” (License number 2374). Mouse peritoneal macrophages (4 × 10^4 in 100 µL RPMI 1640 medium with 10% heat-inactivated FBS) were seeded into wells of a 96-well plate. After 24 h, 2 × 10^5 amastigote L. donovani in 100 µL were added. The amastigotes were taken from an axenic amastigote culture grown at pH 5.4. The medium containing free amastigote forms was removed after 24 h and replaced with fresh medium. The washing step was repeated and afterward the serial drug dilution was prepared with at least 6 dilution steps. Compounds were dissolved in DMSO at 10 mg/ml and further diluted in medium. After 96 h of incubation at 37°C under a 5% CO2 atmosphere, the medium was removed, and cells were fixed by adding 50 µl 4% formaldehyde solution followed by a staining with a 5 µM DRAQ5 solution. Plates were imaged in ImageXpress XLS (MD) microscope using a 20× air objective (635 nm excitation: 690/50 emission). 9 images were collected per well. Automated image analysis was performed with a script developed on Meta Xpress Software (MD). Three outputs were provided for each well: i) number of host cell nuclei; ii) numbers of infected and non-infected host cells; iii) number of parasite nuclei per infected host cell. The IC50 values were calculated based on the infection rate and the numbers of intracellular amastigotes. The cytotoxicity to macrophages was determined in parallel, and IC50 values were calculated based on the numbers of surviving, uninfected macrophages. Miltefosine was used as control. Assays were performed in two independent replicates at least.

[4] = tested on: T. b. rhodesiense STIB 900 bloodstream forms; assay: Activity against Trypanosoma brucei rhodesiense STIB900 (resazurin); assay type: cell-based; settings: for Selectivity index (SI): IC50 in L6 cells divided by IC50 in T. b. rhodesiense: L6 cells vs T. b. rhodesiense STIB 900; for IC50: STIB 900 bloodstream forms, 70 h + resazurin, mean ± absolute deviation
Description: The stock was originally isolated from a patient and adapted to axenic culture conditions after several mouse passages and cloned. Minimum Essential Medium (50 µl) supplemented with 25 mM HEPES, 1 g/L additional glucose, 1% MEM non-essential amino acids (100×), 0.2 mM 2-mercaptoethanol, 1 mM Na-pyruvate ([Baltz et al., 1985]) and 15% heat inactivated horse serum was added to each well of a 96-well microtiter plate. Serial drug dilutions of eleven 3-fold dilution steps covering a range from 100 to 0.002 μg/ml were prepared. Then 4 × 10^3 bloodstream forms of T. b. rhodesiense STIB 900 in 50 µL were added to each well and the plate incubated for 70 h at 37°C and under a 5% CO2 atmosphere. 10 µL resazurin solution (resazurin, 12.5 mg in 100 ml double-distilled water) was then added to each well and incubation continued for a further 2–4 h ([Räz et al., 1997]). Plates were read with a Spectramax Gemini XS microplate fluorometer (Molecular Devices Cooperation, Sunnyvale, CA, USA) using an excitation wavelength of 536 nm and an emission wavelength of 588 nm. […] Melarsoprol (Arsobal Sanofi-Aventis, received from WHO) was used as control. Assays were performed in two independent replicates at least.

[5] = Cytotoxicity to macrophages determined in parallel to the intramacrophage assay; assay type: cell-based; settings: CDI, surviving, uninfected mouse peritoneal macrophages
Description: as §1

[6] = In vitro cytotoxicity with L-6 cells (resazurin); assay type: cell-based, rat; settings: rat; L6 cells, 70 h + 2 h resazurin; mean ± absolute deviation
Description: Assays were performed in 96-well microtiter plates, each well containing 100 µl of RPMI 1640 medium supplemented with 1% L-glutamine (200 mM) and 10% fetal bovine serum, and 4000 L-6 cells (a primary cell line derived from rat skeletal myoblasts) ([Ahmed et al., 1994]). Serial drug dilutions of 11 three-fold dilution steps covering a range from 100 to 0.002 μg/ml were prepared 24 h post seeding L-6 cells. The plates were incubated for 70 h and inspected under an inverted microscope to assure growth of the controls and sterile conditions. 10 µl of resazurin was then added to each well and the plates incubated for another 2 h. Then the plates were read with a Spectramax Gemini XS microplate fluorometer (Molecular Devices Cooperation, Sunnyvale, CA, USA) using an excitation wavelength of 536 nm and an emission wavelength of 588 nm. The IC50 values were calculated by linear regression and four-parameter logistic regression from the sigmoidal dose inhibition curves using SoftmaxPro software (Molecular Devices Cooperation, Sunnyvale, CA, USA). Podophyllotoxin (Sigma P4405) was used as positive control. All assays were performed in two independent replicates at least. Activities of all compounds were expressed in µM using the formula: […]

[7] = Leishmania donovani, pH 5.4, axenic amastigotes
[8] = Leishmania donovani, Peritoneal macrophage
[9] = Plasmodium falciparum, NF54, 72 h, NF54 drug sensitive strain, erythrocytic stages, 72 h, mean ± absolute deviation
[10] = NF54 drug sensitive strain, erythrocytic stages, 72 h, mean ± absolute deviation

Compound: CCN(CC)CCCC(C)Nc1ccnc2cc(Cl)ccc12 (stereo not shown) [Chloroquine, reference compound]
- IC50 ([1]; Plasmodium falciparum, NF54, 72 h): 0.01 ± 0.002 µM

Compound: COc1ccc(-c2oc3cc(O)cc(O)c3c(=O)c2OC)cc1OC [Compound 1, Quercetin-3,3′,4′-trimethylether]
- Selectivity index (SI): IC50 in L6 cells divided by IC50 in L. donovani axenic amastigotes [2]: 9.8
- IC50 [2, 7]: 15 to 22 µM
- IC50 [3, 8]: > 79.9 µM
- Selectivity index (SI): IC50 in L6 cells divided by IC50 in T. b. rhodesiense [4]: 3.4
- IC50 ([4]; Trypanosoma brucei, 70 h): 55.1 ± 13.2 µM
- Selectivity index (SI): IC50 in L6 cells divided by IC50 in P. falciparum [1]: 4.4
- IC50 [1, 9]: 42.1 ± 12.5 µM
- IC50 at 96 h [5]: 154 ± 19.3 µM

Compound: COc1cc(O)c2c(=O)c(OC)c(-c3ccc(OC)c(O)c3)oc2c1 [Compound 2, Ayanin]
- Selectivity index (SI): IC50 in L6 cells divided by IC50 in L. donovani axenic amastigotes [2]: 12.2
- IC50 [2, 7]: 8.2 ± 1.6 µM
- IC50 [3, 8]: > 95.9 µM
- Selectivity index (SI): IC50 in L6 cells divided by IC50 in T. b. rhodesiense [4]: 8.9
- IC50 ([4]; Trypanosoma brucei, 70 h): 11.2 ± 0.2 µM
- Selectivity index (SI): IC50 in L6 cells divided by IC50 in P. falciparum [1]: 12.9
- IC50 [1, 10]: 7.8 ± 0.9 µM
- IC50 [1, 9]: 7 to 8 µM
- IC50 at 96 h [5]: 128 ± 3.5 µM

Compound: COc1cc(O)c2c(=O)c(OC)c(-c3ccc(OC)c(OC)c3)oc2c1 [Compound 3, Retusin]
- Selectivity index (SI): IC50 in L6 cells divided by IC50 in L. donovani axenic amastigotes [2]: 6.3
- IC50 [2, 7]: 34.1 ± 4.7 µM
- IC50 [3, 8]: > 186 µM
- Selectivity index (SI): IC50 in L6 cells divided by IC50 in T. b. rhodesiense [4]: 2.6
- IC50 ([4]; Trypanosoma brucei, 70 h): > 80 µM
- Selectivity index (SI): IC50 in L6 cells divided by IC50 in P. falciparum [1]: 9.2
- IC50 [1, 9]: 23.4 ± 3.8 µM
- IC50 at 70 h [6]: 215 ± 4.7 µM
- IC50 at 96 h [5]: 173 µM

Compound: COc1cc(O)c2c(=O)c(OC)c(-c3ccc(O)c(O)c3)oc2c1 [Compound 6, Quercetin-3,7-dimethylether]
- Selectivity index (SI): IC50 in L6 cells divided by IC50 in L. donovani axenic amastigotes [2]: 12.3
- IC50 [2, 7]: 4.5 ± 0.3 µM
- IC50 [3, 8]: > 66.7 µM
- Selectivity index (SI): IC50 in L6 cells divided by IC50 in T. b. rhodesiense [4]: 23.2
- IC50 ([4]; Trypanosoma brucei, 70 h): 2.4 ± 0.5 µM
- Selectivity index (SI): IC50 in L6 cells divided by IC50 in P. falciparum [1]: 7.6
- IC50 [1, 10]: 7.3 ± 0.6 µM
- IC50 [1, 9]: 7 to 8 µM
- IC50 at 96 h [5]: 102 ± 49.7 µM

Compound: CC(=O)O[C@H]1[C@H]2c3c(ccc4c(=O)cc(-c5ccccc5)oc34)O[C@H]2OC1(C)C [Compound 12, (-)-(3′′S,4′′R,5′′S)-Pseudosemiglabrin]
- Selectivity index (SI): IC50 in L6 cells divided by IC50 in L. donovani axenic amastigotes [2]: 4.1
- IC50 [2, 7]: 18.9 ± 2.6 µM
- IC50 [3, 8]: > 84.2 µM
- Selectivity index (SI): IC50 in L6 cells divided by IC50 in T. b. rhodesiense [4]: 2.1
- IC50 ([4]; Trypanosoma brucei, 70 h): 37.5 ± 6.1 µM
- Selectivity index (SI): IC50 in L6 cells divided by IC50 in P. falciparum [1]: 4.8
- IC50 [1, 10]: 16.3 ± 2.7 µM
- IC50 [1, 9]: ~20 µM
- IC50 at 96 h [5]: 145 ± 10.5 µM

Compound: O=c1c(O)c(-c2ccc(O)cc2)oc2cc(O)cc(O)c12 [Compound 13, Kaempferol]
- Selectivity index (SI): IC50 in L6 cells divided by IC50 in L. donovani axenic amastigotes [2]: 5.3
- IC50 [2, 7]: 20.8 ± 1.7 µM
- IC50 [3, 8]: > 115 µM
- Selectivity index (SI): IC50 in L6 cells divided by IC50 in T. b. rhodesiense [4]: 3.1
- IC50 ([4]; Trypanosoma brucei, 70 h): 36.4 ± 8.7 µM
- Selectivity index (SI): IC50 in L6 cells divided by IC50 in P. falciparum [1]: 2.1
- IC50 [1, 9]: 53.1 ± 7.7 µM
- IC50 at 96 h [5]: 151 ± 18.8 µM

Compound: CCCCCCCCCCCCCCCCOP(=O)([O-])OCC[N+](C)(C)C [Miltefosine, reference compound]
- IC50 [2, 7]: 0.5 ± 0.2 µM
- IC50 [3, 8]: 6.6 ± 0.3 µM
- IC50 at 96 h [5]: > 24.1 µM

Compound: COc1cc([C@@H]2c3cc4c(cc3[C@H](O)[C@H]3COC(=O)[C@H]23)OCO4)cc(OC)c1OC [Podophyllotoxin, reference compound]
- IC50 at 70 h [6]: 0.03 ± 0.005 µM

Compound: (+)-(7S,7′S,8R,8′R)-Pinoresinol [Compound 10]
- Selectivity index (SI): IC50 in L6 cells divided by IC50 in L. donovani axenic amastigotes [2]: 1.6
- IC50 ([2]; axenic amastigotes): > 150 µM and 151 µM
- IC50 [3]: > 279 µM
- Selectivity index (SI): IC50 in L6 cells divided by IC50 in T. b. rhodesiense [4]: 2.1
- IC50 [4]: 116.8 ± 0.3 µM
- IC50 P. falciparum [1, 10]: least active
- IC50 [1, 10]: > 140 µM
